Reference: ChEMBL document CHEMBL1201862, “PubChem BioAssay data set” (2004)
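Values below derive from 48-hour exposures of cells grown in 96-well plates, with endpoints linearly interpolated between the two concentrations bracketing the appropriate inhibition level. GI50 is the concentration that inhibits growth by half.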 Calls of active or inactive are those of the source. Cut-off read from the data, not from the text of the source: active = GI50 up to about 1.1 µM and inactive = higher.

Assays:
Assay in all cases: NCI anticancer screen, dose series, 48 h
[1] = tested on: DU-145
[2] = tested on: K562
[3] = tested on: UACC-62
[4] = tested on: UACC-257
[5] = tested on: MDA-MB-435
[6] = tested on: RXF 393
[7] = tested on: OVCAR-3
[8] = tested on: RPMI-8226
[9] = tested on: HOP-62
[10] = tested on: IGROV-1
[11] = tested on: KM12
[12] = tested on: 786-0
[13] = tested on: OVCAR-4
[14] = tested on: COLO 205
[15] = tested on: SNB-75
[16] = tested on: HT-29
[17] = tested on: HOP-92
[18] = tested on: A549
[19] = tested on: SNB-19
[20] = tested on: MOLT-4

SMILES	GI50 [1]	GI50 [2]	GI50 [3]	GI50 [4]	GI50 [5]	GI50 [6]	GI50 [7]	GI50 [8]	GI50 [9]	GI50 [10]	GI50 [11]	GI50 [12]	GI50 [13]	GI50 [14]	GI50 [15]	GI50 [16]	GI50 [17]	GI50 [18]	GI50 [19]	GI50 [20]
Cc1c(-c2ccccc2)c(C#N)c2nnn(-c3cccc(Cl)c3)c(=O)n12	68.9 µM (inactive)	50.5 µM (inactive)	> 100 µM (inactive)	> 100 µM (inactive)	> 100 µM (inactive)	31.2 µM (inactive)	43 µM (inactive)	42.5 µM (inactive)	37.2 µM (inactive)	54.8 µM (inactive)	55.8 µM (inactive)	28.6 µM (inactive)	76.2 µM (inactive)	44.4 µM (inactive)	31.2 µM (inactive)	30.8 µM (inactive)	44.9 µM (inactive)			
Fc1cccc(C2SCC3=Nc4ccccc4CN32)c1 (stereo not given)	52.4 µM (inactive)	88.9 µM (inactive)	50.2 µM (inactive)	97.9 µM (inactive)	33 µM (inactive)	26.8 µM (inactive)	20.2 µM (inactive)	36.8 µM (inactive)	38.9 µM (inactive)		95.5 µM (inactive)	37.8 µM (inactive)	95.7 µM (inactive)	28.4 µM (inactive)	> 100 µM (inactive)	21.3 µM (inactive)	84.1 µM (inactive)	59.6 µM (inactive)	21.6 µM (inactive)	37.8 µM (inactive)
CCOC(=O)c1csc(NC(=O)CN2CCN(c3ccccc3)CC2)n1	> 100 µM (inactive)	> 100 µM (inactive)	> 100 µM (inactive)	> 100 µM (inactive)	> 100 µM (inactive)	> 100 µM (inactive)	> 100 µM (inactive)	> 100 µM (inactive)	> 100 µM (inactive)	85.9 µM (inactive)	> 100 µM (inactive)		99.1 µM (inactive)	> 100 µM (inactive)	38.4 µM (inactive)	> 100 µM (inactive)	> 100 µM (inactive)	> 100 µM (inactive)	> 100 µM (inactive)	45.6 µM (inactive)
N#CCCN(CCC#N)c1ccc(/C=C2\SC(=S)NC2=O)cc1	> 100 µM (inactive)	> 100 µM (inactive)	> 100 µM (inactive)	> 100 µM (inactive)	> 100 µM (inactive)	37.9 µM (inactive)	> 100 µM (inactive)	> 100 µM (inactive)	35.2 µM (inactive)	> 100 µM (inactive)	> 100 µM (inactive)	30 µM (inactive)	30.8 µM (inactive)	> 100 µM (inactive)	50.2 µM (inactive)	> 100 µM (inactive)	75.9 µM (inactive)	> 100 µM (inactive)	33.9 µM (inactive)	> 100 µM (inactive)
CC(C)c1ccc2c(c1)[C@@]1(C)CC[C@H](C)C(C)(C)C1CC2 (stereo not given in full)	25.7 µM (inactive)	32.2 µM (inactive)	16.2 µM (inactive)	19.5 µM (inactive)	16.9 µM (inactive)	17.5 µM (inactive)	25.4 µM (inactive)	18.4 µM (inactive)	18.8 µM (inactive)	51.8 µM (inactive)	18 µM (inactive)	18.1 µM (inactive)	15.9 µM (inactive)	20.1 µM (inactive)	17.2 µM (inactive)	16.3 µM (inactive)	16.9 µM (inactive)	17.4 µM (inactive)	19.7 µM (inactive)	37 µM (inactive)
CC(C)(C)c1ccc(-c2nnc(-c3cc(C#N)cc(-c4nnc(-c5ccc(C(C)(C)C)cc5)o4)c3)o2)cc1	> 100 µM (inactive)	> 100 µM (inactive)	> 100 µM (inactive)	> 100 µM (inactive)	> 100 µM (inactive)	0.0107 µM (active)	> 100 µM (inactive)	> 100 µM (inactive)	60.1 µM (inactive)	> 100 µM (inactive)	> 100 µM (inactive)	50.2 µM (inactive)	> 100 µM (inactive)	> 100 µM (inactive)	88.9 µM (inactive)	> 100 µM (inactive)	> 100 µM (inactive)	> 100 µM (inactive)	> 100 µM (inactive)	> 100 µM (inactive)
CC(O)c1cc2c(s1)C(=O)c1c(C(C)O)csc1C2=O (stereo not given)	0.119 µM (active)	0.139 µM (active)	0.0589 µM (active)	0.0803 µM (active)	0.0252 µM (active)	0.187 µM (active)	0.0342 µM (active)	0.15 µM (active)	0.199 µM (active)	0.152 µM (active)	0.249 µM (active)	0.392 µM (active)	0.177 µM (active)	1.28 µM (inactive)	0.316 µM (active)	0.586 µM (active)	0.248 µM (active)	0.184 µM (active)	0.33 µM (active)	0.181 µM (active)
